Laboratory results reported in patent US20070105878A1, “Purine formulations and methods for managing disorders” (priority 2005, published 2007).

Assays:
Assay type in all cases: in vivo, mouse
[1] = tested on: Male CD1 mice; assay: micturition model of overactive bladder; settings: 1 hr period after furesomide
From the text: Micturition is a model of overactive bladder and is achieved through complex neurological mechanisms involving somatic, autonomic and central components. Disorders of micturition can roughly be classified as disturbances of bladder storage or of emptying. Failure to store urine may lead to various forms of incontinence, the main forms of which are urge and stress incontinence. Antimuscarinics are the mainstay of pharmacological treatment of the overactive bladder syndrome, which is characterized by urgency, frequency, and urge incontinence. The present study describes the activity of Compound 112 in an animal model of incontinence.
Male CD1 mice (Harlan Sprague Dawley, Indianapolis, Ind.) 12 weeks of age were used for these studies. This study was multiplexed with the pulmonary inflammation study. Animals were housed five per cage, kept on a standard 12 hr light cycle. Sample size was 6 animals per group.
Mice were injected with Compound 112 or vehicle solution as described, and then injected with 1 ml of water (s.c). Furesomide (SigmaAldrich) was formulated at a concentration of 1 mg/ml in water and injected ip at a volume of 10 ml/kg within 5 minutes after drug and water administration. […] Data were averaged and analyzed by ANOVA followed by a post-hoc Tukey's test with a p value of […] indicating a statistical difference.

[2] = tested on: Male C57/B16 mice; assay: experimental autoimmune encephalomyelitis (EAE), animal model of multiple sclerosis, open-field analysis; settings: daily administration at 6 and 30 mg/kg
From the text: Experimental autoimmune encephalomyelitis (EAE) is an animal model of multiple sclerosis. This model is produced by administering a myelin basic protein peptide (MBP) fragment that induces an autoimmune response directed to the myelin sheath surrounding motor neurons. Demyelination of neurons within the CNS leads to impaired locomotor function and mirrors symptoms of the human disease. The disease, and the model, appears in exacerbations and remissions and is characterized by loss of nerve conduction and chronic progression of disability. In this study, we assessed the progression of locomotor dysfunction in mice subjected to EAE and treated with an illustrative compound of the invention.
Male C57/B16 mice (Harlan Sprague Dawley, Indianapolis, Ind.) 8 weeks of age were used for these studies. […]
Open-field assessments were conducted on days 7, 14, 21 and 28. Mice were evaluated by activity in an open-field activity monitor (Med-Associates-OFA ENV-510). Mice were place in the activity monitor for 15 minutes and a variety of open-field behaviors were monitored including distance traveled, ambulatory time, rearing behavior, time in center of field and stereotypic behavior. Data were averaged and analyzed by ANOVA followed by a post-hoc Tukey's test with a p value of less then […] indicating a statistical difference.

[3] = tested on: CD1: ICR mice; assay: tail suspension test in mice
From the text: There are a number of animal models of depression that are used to identify pharmacological agents that have clinical potential as anti-depressant agents. One such animal model is the mouse tail-suspension model. Mice, suspended by the tail, will rapidly develop behavioral despair that is characterized by immobility. This immobility is thought to reflect a state of lowered ‘mood’ (i.e., depression) in which animals have given up hope of escaping.
(§1) In both assays, antidepressants increase the amount of struggle and the latency until the first extended immobility. These assays are considered to be good predictors for antidepressant activity and identifies nearly all antidepressant classes including tricyclics, SSRIs, 5-HT1A receptor agonists, and MAOIs.
(§2) CD1: ICR mice from Harlan 12 weeks of age. Animals were dosed with Compound 112, 30 minutes prior to tail suspension analysis or forced swim test.
For the tail suspension test, a clip was attached to each mouse tail. Mice (2 per run) were suspended from the pressure transducer in an isolated plexiglass tail suspension chamber. Thirty seconds after suspending the mouse from the transducer, struggle activity was monitored via the transducer that was connected to a computer. The following parameters were measured: 1) number of despair events lasting 5 seconds or longer; 2) Total time in despair; and average time in despair. Data were averaged and analyzed by ANOVA followed by a post-hoc Tukey's test with a p value of less then […] indicating a statistical difference.

[4] = tested on: Male CD1 mice; assay: colonic propulsion assay (glass bead expulsion test); settings: for increase of expulsion time from controls: subcutaneous, 30 minutes prior to glass bead expulsion test
From the text: The gastrointestinal transit model described in this report is a method for evaluating a test compounds ability to alter colonic propulsive motility. This model is designed to identify pharmacological agents that produce inhibitory effects on propulsive motor activity and is an excellent predictor of drugs that may be useful for the therapy of irritable bowel syndrome. This model can be modified to identify antagonists of constipative drugs or diarrhea producing drugs. In this study, Compound 112 was tested for its ability to affect colonic transport.
Male CD1 mice (Harlan) 12 weeks of age were used for this study. Mice were kept on a 12 hr light dark cycle and fed ad libitum.
Compound 112 was administered 30 minutes prior to the colonic propulsion study. After dosing, a 3 mm glass bead was inserted through the anus to a depth of 2 cm into the distal colon using a pre-measured plastic rod. […] A cutoff of 30 minutes was used. Data are expressed as the average ±SEM for each treatment. Data were averaged and analyzed by ANOVA followed by a post-hoc Tukey's test with a p value of less then […] indicating a statistical difference.
Compound 112 was compared to morphine, topfisopam, propentofylline, pentoxyfylline, and theophylline in the colonic propulsion assay. Drugs were administered subcutaneously at the indicated doses 30 minutes prior to the colonic propulsion assay.

[5] = tested on: mice; assay: acetylcholine writhing assay
Experimental: Experiments were conducted to collect data in an animal model that reflects the gastrointestinal pain component of IBS. In this model, mice were injected intraperitoneally with acetylcholine. Acetylcholine evokes contractions of smooth muscle in the gastrointestinal tract. These contractions are painful and are expressed as a writhing response. Two measurements are made in this model: 1) time to onset of writhing and 2) total writhing time. In these studies, mice were treated with Compound 112 prior to acetylcholine administration and time to onset and total time writhing were measured.
Compound 112 was tested for its ability to attenuate acetylcholine induce writhing. The anti-writhing response was compared to propentofylline, pentoxyfylline and theophylline. All drugs were administered subcutaneously 30 minutes prior to acetylcholine administration. Acetylcholine was administered at a dose of 3 mg/kg (IP). Acetylcholine writhing was measured for a 10 minute time period. Time to onset and total writhing time were recorded.
Compound 112 was administered via both routes 30 minutes prior to acetylcholine administration. Acetylcholine was administered at a dose of 3 mg/kg (IP). Acetylcholine writhing was measured for a 10 minute time period. Time to onset and total writhing time were recorded.

[6] = tested on: CD1: ICR mice; assay: forced swim test in mice
Experimental: FIG. 2 illustrates forced swim test in mice. Mice are administered illustrative compounds of the invention and subjected to the forced swim test for 6 minutes with activity timed for the duration of the test. Compound 112 was administered 30 minutes prior to the swim test.
The forced swim test is another commonly used animal model for detecting anti-depressant activity of pharmacological agents. This test is complimentary to the tail suspension test. When mice are required to swim in a container with no route of escape they develop a behavioral despair that is characterized by immobility except for small movements needed to remain afloat. This immobility is thought to reflect a state of lowered ‘mood’ (i.e., depression) in which animals have given up hope of escaping. Forced swim test immobility is attenuated by a variety of clinically active antidepressants.
as §1, §2

[7] = subcutaneous, 30 minutes prior to acetylcholine 3 mg/kg IP

## CCOCn1cnc2c1c(=O)n(CCCCC(C)(C)O)c(=O)n2C [Compound 112]
[1]
  number of urination events: significantly reduced
  urinary volume: significantly reduced
[2]
  development of locomotor dysfunction: significantly attenuated
[3]; 6 mg/kg, dosed 30 minutes before test
  number of despair events: reduced
[3]; 6 and 30 mg/kg, dosed 30 minutes before test
  despair time: significantly decreased
[3]; higher doses (≧30 mg/kg)
  anti-depressant activity: lost
[3]; lower doses (6 and 10 mg/kg)
  antidepressant activity: observed
[4]; 30 and 100 mg/kg, 30 minutes after administration
  expulsion of a colonically inserted glass bead: significantly slowed
[4]; 30 and 100 mg/kg, vs vehicle
  extension of expulsion time: > 5 fold
[4]
  increase of expulsion time from controls: 5 fold
[5]; 30 minutes prior to acetylcholine 3 mg/kg IP
  potency, oral vs subcutaneous administration: significantly more potent
[5]; SC, 30 mg/kg
  activity on onset time: produced activity
[5]; oral, 10 mg/kg
  activity on onset time: significant activity
[5]; [7]
  activity on acetylcholine induced writhing: had activity
  overall potency vs theophylline, pentoxyfylline and propentofylline: more potent
  potency in attenuating writhing time vs propentofylline, pentoxyfylline and theophylline: significantly more potent
  potency in delaying onset of writhing vs propentofylline, pentoxyfylline and theophylline: significantly more potent
[6]; higher doses (≧30 mg/kg)
  anti-depressant activity: lost
[6]; lower doses (6 and 10 mg/kg)
  antidepressant activity: observed

## Cn1c(=O)c2[nH]cnc2n(C)c1=O [theophylline, reference compound]
[5]; [7]
  activity on acetylcholine induced writhing: had activity

## CCCn1cnc2c1c(=O)n(CCCCC(C)=O)c(=O)n2C [propentofylline, reference compound]
[5]; [7]
  activity on acetylcholine induced writhing: had activity

## CC(=O)CCCCn1c(=O)c2c(ncn2C)n(C)c1=O [pentoxyfylline, reference compound]
[5]; [7]
  activity on acetylcholine induced writhing: had activity

## CCC1C(C)=NN=C(c2ccc(OC)c(OC)c2)c2cc(OC)c(OC)cc21 (centres unmarked) [tofisopam, reference compound]
[4]
  increase of expulsion time from controls: less than 3 fold
